Test results as given in ChEMBL document CHEMBL1201862, “PubChem BioAssay data set” (2004).
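Cultured in 96-well plates, cells were exposed to test compound for 48 hours across five concentrations. Here, GI50 denotes the concentration required for 50% inhibition of growth.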 Calls of active or inactive are those of the source. Rule as the data show it: active = GI50 up to about 1.1 µM and inactive = higher.

Tests used:
Test in all cases: NCI anticancer screen, dose series, 48 h
MDA-N = test system: MDA-N
HL-60 = test system: HL-60
DU-145 = test system: DU-145
SK-MEL-28 = test system: SK-MEL-28
SW-620 = test system: SW-620
TK-10 = test system: TK-10
SR = test system: SR
MDA-MB-231 = test system: MDA-MB-231
PC-3 = test system: PC-3
SK-MEL-2 = test system: SK-MEL-2
Hs-578T = test system: Hs-578T
IGROV-1 = test system: IGROV-1
OVCAR-4 = test system: OVCAR-4
786-0 = test system: 786-0
Malme-3M = test system: Malme-3M
ACHN = test system: ACHN
DLD-1 = test system: DLD-1
DMS-114 = test system: DMS-114
DMS-273 = test system: DMS-273

Measured: GI50

O=c1ccc2ccc(CBr)cc2o1
inactive: MDA-N 3.85 µM | HL-60 1.76 µM | DU-145 17.1 µM | SK-MEL-28 13.6 µM | SW-620 1.72 µM | TK-10 1.75 µM | SR 2.2 µM | MDA-MB-231 1.72 µM | PC-3 > 100 µM | SK-MEL-2 11.4 µM | Hs-578T 9.84 µM | IGROV-1 3.57 µM

COC(=O)Cc1c(/C=C/C(C)(C)n2cnc(CCN3C(=O)CCC3=O)c2)[nH]c2ccccc12
inactive: MDA-N > 100 µM | HL-60 > 100 µM | DU-145 > 100 µM | SK-MEL-28 > 100 µM | OVCAR-4 > 100 µM | SW-620 > 100 µM | TK-10 > 100 µM | SR 61.4 µM | MDA-MB-231 > 100 µM | PC-3 > 100 µM | SK-MEL-2 > 100 µM | 786-0 > 100 µM | Malme-3M 37 µM | Hs-578T 43.7 µM | ACHN 95.5 µM | IGROV-1 > 100 µM

COc1ccc2nc(-n3c(/C=C/c4ccccc4O)nc4ccccc4c3=O)sc2c1
inactive: MDA-N 17 µM | HL-60 43.4 µM | DU-145 > 100 µM | SK-MEL-28 31.4 µM | OVCAR-4 > 100 µM | SW-620 > 100 µM | TK-10 > 100 µM | MDA-MB-231 > 100 µM | PC-3 53.5 µM | SK-MEL-2 88.3 µM | 786-0 35.9 µM | Malme-3M 71.6 µM | Hs-578T > 100 µM | ACHN > 100 µM | IGROV-1 39.6 µM

COc1cc(C2S/C(=C/c3ccccc3)C(=O)N2c2ccccc2Cl)cc(OC)c1OC (stereo not drawn)
inactive: MDA-N 15.7 µM | SK-MEL-28 42.2 µM | OVCAR-4 28.2 µM | TK-10 76.2 µM | MDA-MB-231 23.4 µM | PC-3 21.8 µM | SK-MEL-2 16 µM | Malme-3M 29.8 µM | Hs-578T 16.5 µM | ACHN 44.4 µM

C[C@H](N[C@H]1CCC[C@]1(O)C#Cc1ccc2c(c1)OCO2)c1ccccc1
inactive: HL-60 > 25 µM | DU-145 > 25 µM | SK-MEL-28 15.5 µM | OVCAR-4 14 µM | TK-10 > 25 µM | SR 20.7 µM | MDA-MB-231 22.1 µM | PC-3 13.6 µM | SK-MEL-2 8.61 µM | Hs-578T > 25 µM | ACHN > 25 µM | IGROV-1 14.3 µM

Cc1ccc(S(=O)(=O)NNC(=O)Nc2ccc(Cl)cc2)cc1
inactive: MDA-N > 100 µM | HL-60 > 100 µM | DU-145 > 100 µM | SK-MEL-28 > 100 µM | OVCAR-4 51.5 µM | SW-620 > 100 µM | TK-10 > 100 µM | SR > 100 µM | MDA-MB-231 > 100 µM | PC-3 > 100 µM | SK-MEL-2 > 100 µM | 786-0 > 100 µM | Malme-3M > 100 µM | Hs-578T > 100 µM | ACHN 6.22 µM | IGROV-1 > 100 µM

Clc1nc(-[n+]2ccc(-c3ccncc3)cc2)nc(Nc2ccccc2)c1Cl
inactive: MDA-N > 100 µM | HL-60 35.3 µM | DU-145 > 100 µM | SK-MEL-28 > 100 µM | OVCAR-4 > 100 µM | SW-620 66.8 µM | TK-10 > 100 µM | SR 26.2 µM | MDA-MB-231 > 100 µM | PC-3 > 100 µM | SK-MEL-2 > 100 µM | 786-0 83.8 µM | Malme-3M > 100 µM | Hs-578T > 100 µM | ACHN > 100 µM | IGROV-1 59.7 µM

COc1ccc(NC(C)=O)cc1N1C(=O)/C(=C\c2ccccc2)SC1c1cc(OC)c(OC)c(OC)c1 (stereo not drawn)
inactive: MDA-N 25.8 µM | HL-60 26.8 µM | DU-145 20.4 µM | SK-MEL-28 80.7 µM | SW-620 40.4 µM | TK-10 > 100 µM | SR 37.8 µM | MDA-MB-231 52.7 µM | PC-3 29 µM | SK-MEL-2 31.8 µM | 786-0 19.2 µM | Malme-3M 24.3 µM | ACHN 39.2 µM | IGROV-1 25.9 µM

O/N=C\c1cc(O)c(O)c(/C=N/O)c1
inactive: MDA-N 47.9 µM | HL-60 14.1 µM | DU-145 31.6 µM | SK-MEL-28 > 100 µM | OVCAR-4 52 µM | SW-620 39.9 µM | TK-10 63.4 µM | SR 11 µM | MDA-MB-231 56.5 µM | PC-3 33.3 µM | SK-MEL-2 67.9 µM | Malme-3M > 100 µM | Hs-578T 23.9 µM | ACHN 24.2 µM | IGROV-1 41.4 µM

O=Cc1ccccc1CCn1c(=O)c2cc3c(=O)n(CCc4ccccc4C=O)c(=O)c3cc2c1=O
inactive: HL-60 > 100 µM | SK-MEL-28 > 100 µM | OVCAR-4 > 100 µM | DLD-1 > 100 µM | SW-620 > 100 µM | TK-10 > 100 µM | DMS-114 > 100 µM | SK-MEL-2 > 100 µM | Malme-3M > 100 µM | DMS-273 > 100 µM | ACHN > 100 µM | IGROV-1 > 100 µM
